What is called melting point is the temperature of the solid-liquid transition.

Structures can show the parent of a compound that is named as a salt.

The text below walks through data of patent US20130281397A1, “TREATMENT OF DISEASES BY EPIGENETIC REGULATION” (RVX Therapeutics Inc., priority 2012, published 2013).

One data set has as its target T1, Brd4 bromodomain 1 (Homo sapiens, UniProt O60885).
T1 construct: made in house; host or cells: E. coli BL21(DE3)
The experiment in a line: Inhibition of binding of tetra-acetylated histone H4 and Brd4 bromodomain 1 by TR-FRET. The settings on record: His-tagged bromodomain 200 nM, biotinylated tetra-acetylated histone H4 peptide 25-50 nM, 2 hours at room temperature. Here is the method: Proteins were cloned and overexpressed with a N-terminal 6×His tag, then purified by nickel affinity followed by size exclusion chromatography. Briefly, E. coli BL21(DE3) cells were transformed with a recombinant expression vector encoding N-terminally […] tagged bromodomains from Brd2, Brd3, or Brd4. Cell cultures were incubated at 37° C. with shaking to the appropriate density and induced overnight with IPTG. The supernatant of lysed cells was loaded onto Ni-IDA column for purification. Eluted protein was pooled, concentrated and further purified by size exclusion chromatography. Fractions representing monomeric protein were pooled, concentrated, aliquoted, and frozen at −80° C. for use in subsequent experiments.
For inhibition assays, serially diluted test compound was added to these reactions in a 0.2% final concentration of DMSO. Final buffer concentrations were 30 mM HEPES pH 7.4, 30 mM NaCl, 0.3 mM CHAPS, 20 mM phosphate pH 7.0, 320 mM KF, 0.08% BSA). […] The binding inhibitory activity was shown by a decrease in 665 nm fluorescence relative to 620 nm. IC50 values were determined from a dose response curve.
A general note: TR-FRET usually uses a lanthanide donor and a delayed reading to cut background.
`COc1cc(OC)c2c(=O)[nH]c(-c3cc(C)c(OCCNS(=O)(=O)c4ccc(Cl)cc4)c(C)c3)nc2c1` [Example 95, 4-chloro-N-(2-(4-(5,7-dimethoxy-4-oxo-3,4-dihydroquinazolin-2-yl)-2,6-dimethylphenoxy)ethyl)benzenesulfonamide]: the “FRET activity (<50 uM)” value is recorded as “Inactive”.

Regarding `CCCNC(=O)OCCOc1c(C)cc(-c2nc3cc(OC)cc(OC)c3c(=O)[nH]2)cc1C` [Example 99, 2-(4-(5,7-Dimethoxy-4-oxo-3,4-dihydroquinazolin-2-yl)-2,6-dimethyl-phenoxy)ethyl propylcarbamate], the “FRET activity (<50 uM)” value was “Active”.

On to `CNC(=O)OCCOc1c(C)cc(-c2nc3cc(OC)cc(OC)c3c(=O)[nH]2)cc1C` [Example 100, 2-(4-(5,7-Dimethoxy-4-oxo-3,4-dihydroquinazolin-2-yl)-2,6-dimethyl-phenoxy)ethyl methylcarbamate], for which the “FRET activity (<50 uM)” value is recorded as “Active”.

Take `COc1cc(OC)c2c(=O)[nH]c(-c3cc(C)c(OCCNC(=O)c4ccc(C)cc4)c(C)c3)nc2c1` [Example 101, N-(2-(4-(5,7-Dimethoxy-4-oxo-3,4-dihydroquinazolin-2-yl)-2,6-dimethylphenoxy)ethyl)-4-methylbenzamide]: the “FRET activity (<50 uM)” value was “Active”.

Regarding `COc1cc(OC)c2c(=O)[nH]c(-c3cc(C)c(OCCOC(=O)NC4CCCCC4)c(C)c3)nc2c1` [Example 102, 2-(4-(5,7-dimethoxy-4-oxo-3,4-dihydroquinazolin-2-yl)-2,6-dimethylphenoxy)ethyl cyclohexylcarbamate], the “FRET activity (<50 uM)” value was “Active”.

In the case of `COc1cc(OC)c2c(=O)[nH]c(-c3cc(C)c(OCCNS(=O)(=O)c4ccccc4)c(C)c3)nc2c1` [Example 103, N-(2-(4-(5,7-dimethoxy-4-oxo-3,4-dihydroquinazolin-2-yl)-2,6-dimethylphenoxy)ethyl)benzenesulfonamide], the “FRET activity (<50 uM)” value is recorded as “Inactive”.

Turning to `COc1cc(OC)c2c(=O)[nH]c(-c3cc(C)c(OCCNS(=O)(=O)c4ccc(C)cc4)c(C)c3)nc2c1` [Example 104, N-(2-(4-(5,7-dimethoxy-4-oxo-3,4-dihydroquinazolin-2-yl)-2,6-dimethylphenoxy)ethyl)-4-methylbenzenesulfonamide], the “FRET activity (<50 uM)” value is listed as “Inactive”.

`COc1ccc(C(=O)NCCOc2c(C)cc(-c3nc4cc(OC)cc(OC)c4c(=O)[nH]3)cc2C)cc1` [Example 105, N-(2-(4-(5,7-dimethoxy-4-oxo-3,4-dihydroquinazolin-2-yl)-2,6-dimethylphenoxy)ethyl)-4-methoxybenzamide]: the “FRET activity (<50 uM)” value is reported as “Inactive”.

As for `COc1cc(OC)c2c(=O)[nH]c(-c3cc(C)c(OCCNC(C)=O)c(C)c3)nc2c1` [Example 106, N-(2-(4-(5,7-dimethoxy-4-oxo-3,4-dihydroquinazolin-2-yl)-2,6-dimethylphenoxy)ethyl)acetamide], the “FRET activity (<50 uM)” value is “Active”.

As to `COc1cc(OC)c2c(=O)[nH]c(-c3cc(C)c(OCCNC(=O)c4ccccc4)c(C)c3)nc2c1` [Example 107, N-(2-(4-(5,7-dimethoxy-4-oxo-3,4-dihydroquinazolin-2-yl)-2,6-dimethylphenoxy)ethyl)benzamide], the “FRET activity (<50 uM)” value is “Active”.

As to `COc1cc(OC)c2c(=O)[nH]c(-c3cc(C)c(OCCNC(=O)C(C)C)c(C)c3)nc2c1` [Example 108, N-(2-(4-(5,7-dimethoxy-4-oxo-3,4-dihydroquinazolin-2-yl)-2,6-dimethylphenoxy)ethyl)isobutyramide], the “FRET activity (<50 uM)” value is “Active”.

Turning to `CNC(=O)NCCOc1c(C)cc(-c2nc3cc(OC)cc(OC)c3c(=O)[nH]2)cc1C` [Example 109, 1-(2-(4-(5,7-dimethoxy-4-oxo-3,4-dihydroquinazolin-2-yl)-2,6-dimethylphenoxy)ethyl)-3-methylurea], the “FRET activity (<50 uM)” value is listed as “Active”.

`COc1ccc(NC(=O)NCCOc2c(C)cc(-c3nc4cc(OC)cc(OC)c4c(=O)[nH]3)cc2C)cc1` [Example 110, 1-(2-(4-(5,7-dimethoxy-4-oxo-3,4-dihydroquinazolin-2-yl)-2,6-dimethylphenoxy)ethyl)-3-(4-methoxyphenyl)urea]: the “FRET activity (<50 uM)” value is given as “Inactive”.

In the case of `COc1cc(OC)c2c(=O)[nH]c(-c3cc(C)c(OCCNC(=O)Nc4ccccc4)c(C)c3)nc2c1` [Example 111, 1-(2-(4-(5,7-dimethoxy-4-oxo-3,4-dihydroquinazolin-2-yl)-2,6-dimethylphenoxy)ethyl)-3-phenylurea], the “FRET activity (<50 uM)” value was “Active”.

Take `COc1cc(OC)c2c(=O)[nH]c(-c3cc(C)c(OCCNC(=O)N(C)C)c(C)c3)nc2c1` [Example 112, 3-(2-(4-(5,7-dimethoxy-4-oxo-3,4-dihydroquinazolin-2-yl)-2,6-dimethylphenoxy)ethyl)-1,1-dimethylurea]: the “FRET activity (<50 uM)” value is given as “Active”.

System in a further data set: not given
Experiment: not given
Settings: not given
`Cc1cc(-c2cc3ncccc3c(=O)[nH]2)cc(C)c1O` (as salt: HCl) [Example 5, 7-(4-hydroxy-3,5-dimethylphenyl)-1,6-naphthyridin-5(6H)-one] came in with a melting point of over 350 °C.

The compound `COc1cc(OC)c2c(=O)[nH]c(-c3cc(C)c(O)c(C)c3)cc2n1` (as salt: HCl) [Example 13, 7-(4-hydroxy-3,5-dimethylphenyl)-2,4-dimethoxy-1,6-naphthyridin-5(6H)-one] gave a melting point of over 324 °C.

Regarding `COc1cc(OC)c2c(=O)[nH]c(-c3cc(C)c(OCCN(C)C)c(C)c3)cc2c1` (as salt: hydrochloride) [Example 7, 3-(4-(2-(dimethylamino)ethoxy)-3,5-dimethylphenyl)-6,8-dimethoxyisoquinolin-1(2H)-one], the melting point fell in the range of 261 to 263 °C.

`Cc1cc(-c2cc3ccc(CN4CCOCC4)cc3c(=O)[nH]2)cc(C)c1O` (as salt: hydrochloride) [Example 8, 3-(4-hydroxy-3,5-dimethylphenyl)-7-(morpholinomethyl)isoquinolin-1(2H)-one] yielded a melting point of 281 to 283 °C.

The compound `COc1cc(O)nc2cc(-c3cc(C)c(O)c(C)c3)[nH]c(=O)c12` (as salt: hydrochloride) [Example 9, 2-hydroxy-7-(4-hydroxy-3,5-dimethylphenyl)-4-methoxy-1,6-naphthyridin-5(6H)-one] gave a melting point of over 330 °C.

As for `COc1cc(OC)c2c(=O)[nH]c(-c3cc(C)c(OCCN4CCOCC4)c(C)c3)nc2c1` (as salt: hydrochloride) [Example 17, 2-(3,5-dimethyl-4-(2-morpholinoethoxy)phenyl)-5,7-dimethoxyquinazolin-4(3H)-one], the melting point lay in the range of 185 to 187 °C.

As for `COc1cc(OC)c2c(=O)[nH]c(-c3cc(C)c(OCCN4CCN(C)CC4)c(C)c3)cc2c1` (as salt: hydrochloride) [Example 18, 3-(3,5-dimethyl-4-(2-(4-methylpiperazin-1-yl)ethoxy)phenyl)-6,8-dimethoxyisoquinolin-1(2H)-one], the melting point is 195 to 198 °C.

In turn, `COc1cc(OC)c2c(=O)[nH]c(-c3ccccn3)nc2c1` (as salt: hydrochloride) [Example 21, 5,7-dimethoxy-2-(pyridin-2-yl)quinazolin-4(3H)-one] returned a melting point of 215 to 217 °C.

For the compound `COc1cc(OC)c2c(=O)[nH]c(-c3cccnc3)nc2c1` (as salt: hydrochloride) [Example 22, 5,7-dimethoxy-2-(pyridin-3-yl)quinazolin-4(3H)-one], the melting point lay in the range of 257 to 259 °C.

Compound `COc1cc(OC)c2c(=O)[nH]c(-c3ccncc3)nc2c1` (as salt: hydrochloride) [Example 28, 5,7-dimethoxy-2-(pyridin-4-yl)quinazolin-4(3H)-one] came in with a melting point of 294 to 295 °C.

For `Cc1cc(-c2nc3ccccc3c(=O)[nH]2)cc(C)c1OCCN1CCOCC1` (as salt: hydrochloride) [Example 29, 2-(3,5-dimethyl-4-(2-morpholinoethoxy)phenyl)quinazolin-4(3H)-one], the melting point is 300 to 302 °C.

The compound `COc1cc(OC)c2c(=O)[nH]c(-c3ccc(CN4CCN(C)CC4)cc3)nc2c1` (as salt: hydrochloride) [Example 54, 5,7-dimethoxy-2-(4-((4-methylpiperazin-1-yl)methyl)phenyl)quinazolin-4(3H)-one] gave a melting point of 275 to 277 °C.

In the case of `Cc1cc(-c2nc3ccc(CN4CCOCC4)cc3c(=O)[nH]2)cc(C)c1O` (as salt: hydrochloride) [Example 57, 2-(4-hydroxy-3,5-dimethylphenyl)-6-(morpholinomethyl)quinazolin-4(3H)-one], the melting point lay within 284 to 286 °C.

For the compound `COc1cc(OC)c2c(=O)[nH]c(-c3ccc(CN4CCOCC4)cc3)nc2c1` (as salt: hydrochloride) [Example 61, 5,7-dimethoxy-2-(4-(morpholinomethyl)phenyl)quinazolin-4(3H)-one], the melting point was 206 to 208 °C (dec.).

As for `CCN1CCN(Cc2ccc(-c3nc4cc(OC)cc(OC)c4c(=O)[nH]3)cc2)CC1` (as salt: hydrochloride) [Example 62, 2-(4-((4-ethylpiperazin-1-yl)methyl)phenyl)-5,7-dimethoxyquinazolin-4(3H)-one], the melting point was 278 to 280 °C (dec.).

In turn, `COc1cc2cc(-c3cc(C)c(O)c(C)c3)n(C)c(=O)c2c(OC)c1C` [Example 14 (left), 3-(4-hydroxy-3,5-dimethylphenyl)-6,8-dimethoxy-2,7-dimethylisoquinolin-1(2H)-one] showed a melting point of 246 to 248 °C.
